# Experiments:
# [1] = system: pigmentation marks on the skin (back of one hand); assay: Clinical evaluation of pigmentation marks (visual overall score 0 to 7 by an expert); assay type: in vivo; settings: gelled oil-in-water emulsion with 1% by weight DHEA, applied morning and evening for four months to the back of one hand, 20 women 55 to 70 years old, score constant on untreated hand, FIG. 1
# Description: (§1) A gelled oil-in-water emulsion, containing 1% by weight of DHEA as sole active agent, was tested on a group of 20 women from 55 to 70 years old. The emulsion was applied morning and evening for four months to the back of one hand.
# The marks present on the skin were evaluated before and after treatment by visual observation made by an expert, giving the marks an overall score from 0 to 7 as a function of their number, their size and their intensity (clinical evaluation).
# [2] = system: skin pigmentation (back of one hand); assay: Biophysical evaluation by colorimetry (Minolta CR200, parameter b*); assay type: in vivo; settings: gelled oil-in-water emulsion with 1% by weight DHEA, applied morning and evening for four months to the back of one hand; 20 women 55 to 70 years old; decrease greater than on untreated hand; FIG. 2
# Description: as §1
# They were also evaluated by colorimetry, using a Minolta CR200 […] (biophysical evaluation). This apparatus describes the colors in a three-dimensional space, using the system of coordinates L, a* and b* recommended by the International Commission on Illumination, in which L* represents the luminance or clarity of the color ([…]), a* is the separation component between green (negative) and red (positive) and is correlated to the skin erythema, and b* varies from blue (negative) to yellow (positive) and represents the skin pigmentation. This parameter b* was used to evaluate the change in the marks in the course of the treatment. It is the result of the average of six individual measurements taken per zone and per measurement period.
smiles,measurement,setting,value
"C[C@]12CC[C@H](O)CC1=CC[C@@H]1[C@@H]2CC[C@]2(C)C(=O)CC[C@@H]12 [DHEA, dehydroepiandrosterone]",overall clinical score of the pigmentation marks,[1],improvement in the overall clinical score
same,component b of the color of the skin (skin pigmentation),[2],decrease in the component b of the color of the skin

# Source: patent publication US7351699B1, “Use of DHEA or precursors or metabolic derivatives thereof as a depigmenting agent” (L'Oreal, priority 1999, dated 2008)
